Experimental data: PMC7287882, “Dual miRNases for Triple Incision of miRNA Target: Design Concept and Catalytic Performance” (Molecules, 2020)

How the values were obtained:
miR-155 = test: Ribonuclease activity assay, cleavage of miR-155; type: biochemical; settings: miRNA 1 µM, DC 20 µM, 37 °C
Description: The ribonuclease activity of DCs was studied under two different buffer conditions: buffer (1) contained 50 mM Tris-HCl, pH 7.0, 200 mM KCl, 1 mM EDTA, which imitates intracellular conditions (e.g., pH and potassium ions concentration) and was used in a number of studies previously; and buffer (2) contained 20 mM Tris-HCl, pH 7.8, 40 mM KCl, 8 mM MgCl2, 1 mM DTT, 0.02 mg/mL BSA, which is recommended for in vitro reactions with RNase H (Figure 3 and Figure 4).
Figure 3 Kinetics of cleavage of 5′-[^32P]-labeled miR-17, miR-18a, miR-155, miR-21 and miR-21_1 by corresponding DCs in the buffer (1), containing 50 mM Tris-HCl, pH 7.0, 200 mM KCl and 1 mM EDTA. (a–e) Radioautographs of 18% denaturing PAAG showing the cleavage products of miR-17, miR-18a, miR-155, miR-21 and miR-21_1, respectively. miRNA (1 µM) and corresponding DC (20 µM) were incubated at 37 °C for 72 h. Lanes Im and T1—imidazole ladder and partial RNA digestion with RNase T1, respectively; control–miRNA was incubated in the absence of the conjugate. The incubation time (in hours) is show at the top. SS gap–single-stranded region of miRNA formed upon hybridization with DC; (f) Kinetics of miRNAs cleavage by DCs depending on the incubation time. Data are presented as mean ± s.e.
Figure 4 Kinetics of cleavage of 5′-[^32P]-labeled miR-17, miR-18a, miR-155, miR-21, and miR-21_1 by corresponding DCs in the buffer (2), containing 20 mM Tris-HCl, pH 7.8, 40 mM KCl, 8 mM MgCl2, 1 mM DTT, 0.02 mg/mL BSA. (a–e) Radioautographs of 18% denaturing PAAG showing the cleavage products of miR-17, miR-18a, miR-155, miR-21 and miR-21_1, respectively. miRNA (1 µM) and corresponding DC (20 µM) were incubated at 37 °C for 72 h. Lanes Im and T1–imidazole ladder and partial RNA digestion with RNase T1, respectively; control–miRNA was incubated in the absence of the conjugate. The incubation time (in hours) is shown at the top. SS gap–single-stranded region of miRNA formed upon hybridization with DC; (f) Kinetics of miRNAs cleavage by DCs. Data are presented as mean ± s.e.
The reaction mixture (10 µL) contained 800 cpm (Cherenkov’s counting) of [^32P]-miRNA, 1 μM unlabeled miRNA, one of the conjugates at a concentration 10 or 20 μM and one of the buffers: 50 mM Tris-HCl, pH 7.0, 200 mM KCl, 1 mM EDTA–buffer (1) or 20 mM Tris-HCl, pH 7.8, 40 mM KCl, 8 mM MgCl2, 1 mM DTT, 0.02 mg/mL BSA–buffer (2). The mixture was incubated at 37 °C for 0–72 h and quenched by precipitation of RNA with 2% LiClO4 in acetone (90 µL). RNA was collected by centrifugation and dissolved in loading buffer (8 M urea, 0.025% bromophenol blue, 0.025% xylene cyanol). RNA cleavage products were analyzed in 18% PAAG/8M urea using TBE (100 mM Tris-borate, pH 8.3, 2 mM EDTA) as running buffer. To identify cleavage sites, an imidazole and T1-ladders produced by partial RNA cleavage with 2 M imidazole buffer (pH 7.0) and with RNase T1 [68], respectively, were run in parallel. To obtain quantitative data, gels were dried and analyzed using Molecular Imager FX. The total extent of RNA cleavage and the extent of RNA cleavage at each individual site were determined by using Quantity One software v.4.1 (Bio-Rad, Hercules, CA, USA).

miR-17 = test: Gel-retardation assay, hybridization with miR-17; type: binding; settings: 50 mM Tris-HCl pH 7.0, 200 mM KCl, 1 mM EDTA, 37 °C, 45 min, mean of 3
Description: We carried out a comparative analysis of the hybridization properties of the developed DCs with the corresponding SCs, which were the products of the first stage of the DCs synthesis. As discussed above, each SC consisted of the corresponding oligonucleotide A, which was complementary to the 5′-region of the matching miRNA target, and the catalytic peptide [LRLRG]2, attached to the 5′-end of this oligonucleotide via a thiohexyl linker (linker 2). […] Indeed, the level of binding of DCs to their miRNA targets reached 96, 90, 75, 55% at equimolar concentration (1 μM), and 99, 96, 92 and 69% at 5-fold excess of DCs over miR-17, miR-18a, miR-21 and miR-155, respectively (Figure 2). […]
The reaction mixture (4 µL) containing 50 mM Tris-HCl, pH 7.0, 200 mM KCl and 1 mM EDTA, 100 cpm (Cherenkov’s counting) of [^32P]-miRNA, 1 μM unlabeled miRNA, a conjugate at a concentration ranging from 0.1 to 10 μM was incubated at 37 °C for 45 min and quenched by adding of a loading buffer (20% ficoll, 0.025% bromophenol blue, 0.025% xylene cyanol). […] Formation of the complex miRNA/conjugate was analyzed by electrophoresis in 15% native PAAG at 4 °C. The gels were analyzed using Molecular Imager FX. The extent of binding of conjugate to miRNA was determined as a ratio of radioactivity measured in the complex to the total radioactivity applied onto the gel lane.

Substance | Total Cleavage (miR-155; buffer (1) 50 mM Tris-HCl pH 7.0, 200 mM KCl, 1 mM EDTA, 2 h) | Total Cleavage (miR-155; buffer (1) 50 mM Tris-HCl pH 7.0, 200 mM KCl, 1 mM EDTA, 6 h) | Total Cleavage (miR-155; buffer (1) 50 mM Tris-HCl pH 7.0, 200 mM KCl, 1 mM EDTA, 24 h) | Total Cleavage (miR-155; buffer (1) 50 mM Tris-HCl pH 7.0, 200 mM KCl, 1 mM EDTA, 48 h) | Total Cleavage (miR-155; buffer (1) 50 mM Tris-HCl pH 7.0, 200 mM KCl, 1 mM EDTA, 72 h) | Total Cleavage (miR-155; buffer (2) 20 mM Tris-HCl pH 7.8, 40 mM KCl, 8 mM MgCl2, 1 mM DTT, 0.02 mg/mL BSA, 2 h) | Total Cleavage (miR-155; buffer (2) 20 mM Tris-HCl pH 7.8, 40 mM KCl, 8 mM MgCl2, 1 mM DTT, 0.02 mg/mL BSA, 6 h) | Total Cleavage (miR-155; buffer (2) 20 mM Tris-HCl pH 7.8, 40 mM KCl, 8 mM MgCl2, 1 mM DTT, 0.02 mg/mL BSA, 24 h) | Total Cleavage (miR-155; buffer (2) 20 mM Tris-HCl pH 7.8, 40 mM KCl, 8 mM MgCl2, 1 mM DTT, 0.02 mg/mL BSA, 48 h) | Total Cleavage (miR-155; buffer (2) 20 mM Tris-HCl pH 7.8, 40 mM KCl, 8 mM MgCl2, 1 mM DTT, 0.02 mg/mL BSA, 72 h) | rise of Kobs in buffer (2) compared to Kobs in buffer (1) (miR-155) | level of binding of DC to miRNA target (miR-17; 5-fold excess of DC over miRNA (1 µM)) | level of binding of DC to miRNA target (miR-17; equimolar, DC 1 µM : miRNA 1 µM, 15% native PAAG)
ACCCCTAT–linker 1–[GRLRL]2–linker 2–TTAGCATTAA [miRNA-155-DC, Dual oligonucleotide-peptide conjugate targeted to miR-155: catalytic peptide [LRLRG]2 between two 2-aminoadenine-containing oligodeoxyribonucleotides] | 0% | 0% | 0,5% | 16% | 21% | 15% | 41% | 56% | 57% | 72% | 6 fold | – | –
CTACCTGC–linker 1–[GRLRL]2–linker 2–AAGCACTTTG [miRNA-17-DC, Dual oligonucleotide-peptide conjugate targeted to miR-17: catalytic peptide [LRLRG]2 between two 2-aminoadenine-containing oligodeoxyribonucleotides] | – | – | – | – | – | – | – | – | – | – | – | 99% | 96%
